Data on 22 molecules can be found in patent US12071424B2, “IRE1 small molecule inhibitors” (Cornell University, priority 2017, dated 2024).

As usually defined, the IC50 is the concentration at which inhibition is half-maximal. As usually defined, the EC50 is the midpoint of the concentration-response curve.

Experiment [1] deals with T1, IRE1a (Homo sapiens, UniProt O75460).
T1 construct: purchased SignalChem
Put plainly: In vitro FRET assay (IRE1a cleavage of XBP1 RNA probe). In kind it is biochemical. The following applies: 2 nM SignalChem IRE1a, tested as Formic Acid Salt (37: HCl Salt). The protocol:
In vitro FRET assay was performed to evaluate the ability of select compounds to inhibit IRE1, the results of which are summarized in Table 3. To perform the in vitro FRET assay, 1× complete assay buffer (CAB: […], 50 mM sodium citrate pH 7.15, 1 mM magnesium acetate, 0.02% tween 20) was used to SignalChem IRE1a protein to a final concentration of 2 nM. Selected compounds were serially diluted with DMSO in a non-binding black 384-well plate for a total of 15 ul in each well. 2 ul of the serially diluted compound or DMSO control were then added to new wells containing 98 ul of 1× CAB, for a total volume of 100 ul, 10 ul of which were then transferred to wells of a new plate. 5 ul of the diluted IRE1a was then added to each well. 5 ul of a […] XBP1 RNA probe was then added to each well. Fluorescence was then read over 30 minutes in kinetic mode (485/515 nm).
Two RNA probes were used, XBP1 wildtype (SEQ ID NO: 2) which is able to be spliced by active IRE1a or XBP1 mutant (SEQ ID NO: 3) which is unable to be spliced. Each probe contained a 5′ 6-FAM modification and a 3′ IOWA black FQ modification. […]

The subject of experiment [2] is IRE1a. Put plainly: IRE1a Endoribonuclease Nanoluciferase Assay (XBP1 luciferase reporter in 293T cells). In kind it is cell-based, human. The conditions noted are these: ER stressor, tested as Formic Acid Salt (37: HCl Salt). The protocol: Compounds disclosed herein assessed for disruption of IRE1 signaling using a IRE1a Endoribonuclease Nanoluciferase Assay. Briefly, 25×10^5 293T cells were seeded in a 10 cm^2 tissue culture plate. About 24 hours later, the cells were transfected with Effectene. In a 15 mL tube, the following was added: 2 ug XBP1 luciferase reporter plasmid (PGK-Luc2-P2A-XBP1u-Nanoluciferase-Pest); 300 ul EC buffer; and 16 ul Enhancer, followed by incubation at room temp for 5 minutes. Next, 60 ul Effectene (Qiagen 301427) was added, followed by incubation at room temperature for 10 minutes. 2.6 mL cDMEM media was added. Old media was aspirated from the cells, followed by addition of 7 mL fresh media. Full transfection mixture was added dropwise to cells. Cells were incubated for 6 hours, followed by trypsinization, centrifugation and resuspension in 11 mL fresh cDMEM media. 100 uL of cells were plated per a well in a 96 well plate. A day later, ER stressors of choice +/−inhibitors were added. To harvest, media was aspirated from cells completely, then 50 uL 1× passive lysis buffer (Promega: E1941) was added per well and put on shaker (300 rpm) for 30 minutes at room temperature. Cells were centrifuged, and 15 uL sample per well was added to a new, opaque white 384 well plate (Corning 3570). 15 uL OneGlo (nanoluciferase kit, Promega N1630) was added. Plates were spun down, placed on shaker (300 rpm) for 10 minutes. Plates were read on luminometer, 1000 ms integration time per well. 15 uL Stop an Glo (nanoluciferase kit) was added. Plates were spun down, placed on shaker (300 rpm) for 10 minutes. Plates were read on luminometer, 1000 ms second integration time per well. Recordings are provided below in Table 4.
A general note: In a reporter assay the amount or activity of a reporter protein is the signal.

T1 sequence (O75460 19-977): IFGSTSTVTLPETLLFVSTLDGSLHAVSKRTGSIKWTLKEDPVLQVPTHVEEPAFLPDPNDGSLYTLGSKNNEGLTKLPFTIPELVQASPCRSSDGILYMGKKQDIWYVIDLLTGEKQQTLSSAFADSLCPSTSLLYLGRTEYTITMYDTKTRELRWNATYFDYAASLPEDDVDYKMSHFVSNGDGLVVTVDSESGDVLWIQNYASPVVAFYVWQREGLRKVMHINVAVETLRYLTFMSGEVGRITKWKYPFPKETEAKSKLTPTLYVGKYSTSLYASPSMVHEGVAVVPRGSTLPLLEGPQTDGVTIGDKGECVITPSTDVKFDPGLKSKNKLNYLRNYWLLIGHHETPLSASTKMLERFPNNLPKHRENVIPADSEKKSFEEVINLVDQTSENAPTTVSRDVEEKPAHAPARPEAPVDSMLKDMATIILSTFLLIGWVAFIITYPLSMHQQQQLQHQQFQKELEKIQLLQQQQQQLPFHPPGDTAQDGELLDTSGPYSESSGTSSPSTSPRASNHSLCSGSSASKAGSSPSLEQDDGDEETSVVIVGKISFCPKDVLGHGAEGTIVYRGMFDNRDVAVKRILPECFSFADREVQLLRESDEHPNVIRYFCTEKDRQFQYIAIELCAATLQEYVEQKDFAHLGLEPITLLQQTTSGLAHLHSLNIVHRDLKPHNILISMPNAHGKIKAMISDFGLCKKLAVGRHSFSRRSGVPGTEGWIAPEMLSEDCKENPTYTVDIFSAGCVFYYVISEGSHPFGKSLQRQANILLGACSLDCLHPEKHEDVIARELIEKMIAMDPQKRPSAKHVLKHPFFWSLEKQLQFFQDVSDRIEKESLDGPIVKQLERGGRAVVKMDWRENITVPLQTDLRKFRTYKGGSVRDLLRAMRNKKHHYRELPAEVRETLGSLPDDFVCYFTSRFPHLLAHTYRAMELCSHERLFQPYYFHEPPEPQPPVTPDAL

Regarding `O=S(=O)(Nc1ccc(-c2ccc3nc(N[C@H]4CCCNC4)ncc3c2)cc1F)c1ccccc1Cl` [Compound 76, (S)-2-chloro-N-(2-fluoro-4-(2-(piperdin-3-ylamino)quinazolin-6-yl)phenyl) benzenesulfon-amide], in experiment [1], the IC50 is no more than 5 nM. For the same molecule, the EC50 in experiment [2] (Homo sapiens, HEK-293T) was in the range of 5 to 50 nM.

As to `N[C@@H]1CC[C@@H](Nc2ncc3cc(-c4ccc(NS(=O)(=O)c5ccccc5Cl)c(F)c4)ccc3n2)C1` [Compound 77, N-(4-(2-(((1R,3R)-3-aminocyclopentyl)amino)quinazolin-6-yl)-2-fluorophenyl)-2-chlorobenzene-sulfonamide], the IC50 in experiment [1] was no more than 5 nM. In addition, in experiment [2] (Homo sapiens, HEK-293T), the EC50 is 5 to 50 nM.

With `CCc1cc(-c2ccc(NS(=O)(=O)c3ccccc3Cl)c(F)c2)cc2cnc(N[C@@H]3CC[C@@H](N)C3)nc12` [Compound 78, N-(4-(2-(((1R,3R)-3-aminocyclopentyl)amino)-8-ethylquinazolin-6-yl)-2-fluorophenyl)-2-chlorobenzene-sulfonamide], the IC50 in experiment [1] is no more than 5 nM. The EC50 in experiment [2] (Homo sapiens, HEK-293T) was no more than 5 nM.

On to `CCc1cc(-c2ccc(NS(=O)(=O)c3ccccc3Cl)c(F)c2)cc2cnc(N[C@@H]3CC[C@H](N)C3)nc12` [Compound 79, N-(4-(2-(((1R,3S)-3-aminocyclopentyl)amino)-8-ethylquinazolin-6-yl)-2-fluorophenyl)-2-chlorobenzene-sulfonamide], for which, in experiment [1], the IC50 is no more than 5 nM. In addition, the EC50 in experiment [2] (Homo sapiens, HEK-293T) fell in the range of 5 to 50 nM.

As for `NC12CCC(Nc3ncc4cc(-c5ccc(NS(=O)(=O)c6ccccc6Cl)c(F)c5)ccc4n3)(CC1)CC2` [Compound 81, N-(4-(2-((4-aminobicyclo[2.2.2]octan-1-yl)amino)quinazolin-6-yl)-2 fluorophenyl)-2-chlorobenzene-sulfonamide], in experiment [1], the IC50 is no more than 5 nM. Moreover, in experiment [2] (Homo sapiens, HEK-293T), the EC50 was no more than 5 nM.

On to `CCc1cc(-c2ccc(NS(=O)(=O)c3ccccc3Cl)c(F)c2)cc2cnc(N[C@H]3CC4C[C@H](N)CC4C3)nc12` (some centres unmarked) [Compound 82, N-(4-(2-((4-5-aminooctahydro-pentalen-2-yl)amino)-8-ethylquinazolin-6-yl)-2-fluorophenyl)-2-chlorobenzene-sulfonamide], for which the IC50 in experiment [1] is no more than 5 nM. Further, in experiment [2], the EC50 is 5 to 50 nM.

For `CCc1cc(-c2ccc(NS(=O)(=O)c3ccccc3Cl)c(F)c2)cc2cnc(N[C@H]3CC4C[C@H](N)CC4C3)nc12` (some centres unmarked) [Compound 83], the IC50 in experiment [1] fell in the range of 5 to 50 nM. In addition, the EC50 in experiment [2] is 50 to 100 nM.

As for `CCc1cc(-c2ccc(NS(=O)(=O)c3ccccc3Cl)c(F)c2)cc2cnc(N[C@H]3CC4C[C@@H](N)CC4C3)nc12` (some centres unmarked) [Compound 84], in experiment [1], the IC50 is no more than 5 nM. Moreover, the EC50 in experiment [2] (Homo sapiens, HEK-293T) fell in the range of 5 to 50 nM.

On to `N[C@H]1CC2C[C@@H](Nc3ncc4cc(-c5ccc(NS(=O)(=O)c6ccccc6Cl)c(F)c5)ccc4n3)CC2C1` (some centres unmarked) [Compound 85, N-(4-(2-(((2s,5s)-5-aminooctahydro-pentalen-2-yl)amino)quinazolin-6-yl)-2-fluorophenyl)-2-chlorobenzene-sulfonamide], for which, in experiment [1], the IC50 is no more than 5 nM. The EC50 in experiment [2] (Homo sapiens, HEK-293T) is 100 to 10000 nM.

As for `NC12CCC(Nc3ncc4cc(-c5ccc(NS(=O)(=O)c6ccccc6Cl)c(F)c5)ccc4n3)(CC1)C2` [Compound 86], the IC50 in experiment [1] is no more than 5 nM. In addition, in experiment [2] (Homo sapiens, HEK-293T), the EC50 lay in the range of 50 to 100 nM.

Take `CCc1cc(-c2ccc(NS(=O)(=O)c3ccccc3Cl)c(F)c2)cc2cnc(NC34CCC(N)(CC3)CC4)nc12` [Compound 87, N-(4-(2-((4-aminobicyclo[2.2.2]octan-1-yl)amino)-8-ethylquinazolin-6-yl)-2-fluorophenyl)-2-chlorobenzene-sulfonamide]: in experiment [1], the IC50 is no more than 5 nM. Further, the EC50 in experiment [2] (Homo sapiens, HEK-293T) is no more than 5 nM.

Turning to `CCc1cc(-c2ccc(NS(=O)(=O)c3ccccc3Cl)c(F)c2)cc2cnc(N[C@H]3CC[C@H](N4CCCC4)CC3)nc12` [Compound 88, 2-chloro-N-(4-(8-ethyl-2-(((1r,4r)-4-(pyrrolidin-1-yl)cyclohexyl)amino)quinazolin-6-yl)-2-fluorophenyl) benzenesulfon-amide], in experiment [1], the IC50 is no more than 5 nM. In addition, the EC50 in experiment [2] (Homo sapiens, HEK-293T) is no more than 5 nM.

As to `N[C@H]1CC[C@H](Nc2ncc3cc(-c4nnc(NS(=O)(=O)c5ccccc5Cl)s4)ccc3n2)CC1` [Compound 89, N-(5-(2-(((1r,4r)-4-aminocyclohexyl)amino)quinazolin-6-yl)-1,3,4-thiadiazol-2-yl)-2-chlorobenzene-sulfonamide], the IC50 in experiment [1] was no more than 5 nM. Also, in experiment [2] (Homo sapiens, HEK-293T), the EC50 is 100 to 10000 nM.

As for `Cc1cc2nc(N[C@H]3CC[C@H](N)CC3)ncc2cc1-c1ccc(NS(=O)(=O)c2ccccc2Cl)c(F)c1` [Compound 90, N-(4-(2-(((1r,4r)-4-aminocyclohexyl)amino)-7-methylquinazolin-6-yl)-2-fluorophenyl)-2-chlorobenzene-sulfonamide], the IC50 in experiment [1] was no more than 5 nM. For the same molecule, in experiment [2] (Homo sapiens, HEK-293T), the EC50 lay in the range of 5 to 50 nM.

Consider `CCc1cc(-c2cnc(NS(=O)(=O)c3ccccc3Cl)cc2OC)cc2cnc(N[C@H]3CC[C@H](N)CC3)nc12` [Compound 92, N-(5-(2-(((1r,4r)-4-aminocyclohexyl)amino)-8-ethylquinazolin-6-yl)-4-methoxypyridin-2-yl)-2-chlorobenzene-sulfonamide], for which the IC50 in experiment [1] is no more than 5 nM. Further, the concentration for a half-maximal effect (EC50) in experiment [2] (Homo sapiens, HEK-293T) is 100 to 10000 nM.

Consider `CCc1cc(-c2cnc(NS(=O)(=O)c3ccccc3Cl)c(F)c2)cc2cnc(N[C@H]3CC[C@H](N(C)C)CC3)nc12` [Compound 95, 2-chloro-N-(5-(2-(((1r,4r)-4-(dimethylamino)cyclohexyl)amino)-8-ethylquinazolin-6-yl)-3-fluoropyridin-2-yl)benzenesulfonamide], for which the IC50 in experiment [1] was no more than 5 nM. For the same molecule, the EC50 in experiment [2] (Homo sapiens, HEK-293T) is no more than 5 nM.

In the case of `CCc1cc(-c2cc(F)c(NS(=O)(=O)c3ccccc3Cl)nc2C)cc2cnc(N[C@H]3CC[C@H](N(C)C)CC3)nc12` [Compound 97, 2-chloro-N-(5-(2-(((1r,4r)-4-(dimethylamino)cyclohexyl)amino)-8-ethylquinazolin-6-yl)-3-fluoro-6-methylpyridin-2-yl)benzenesulfonamide], the IC50 in experiment [1] was no more than 5 nM. Moreover, the EC50 in experiment [2] (Homo sapiens, HEK-293T) is no more than 5 nM.

For `CCc1cc(-c2ncc(NS(=O)(=O)c3ccccc3Cl)nc2OC)cc2cnc(N[C@H]3CC[C@H](N)CC3)nc12` [Compound 98, N-(5-(2-(((1r,4r)-4-aminocyclohexyl)amino)-8-ethylquinazolin-6-yl)-6-methoxypyrazin-2-yl)-2-chlorobenzenesulfonamide], in experiment [1], the half-maximal inhibitory concentration (IC50) is no more than 5 nM. In experiment [2] (Homo sapiens, HEK-293T), the EC50 was no more than 5 nM.

`CCc1cc(-c2ccc(NS(=O)(=O)c3ccccc3Cl)nc2OC)cc2cnc(N[C@H]3CC[C@H](N(C)C)CC3)nc12` [Compound 99, 2-chloro-N-(5-(2-(((1r,4r)-4-(dimethylamino)cyclohexyl)amino)-8-ethylquinazolin-6-yl)-6-methoxypyridin-2-yl)benzenesulfonamide]: the IC50 in experiment [1] was no more than 5 nM. For the same molecule, the EC50 in experiment [2] (Homo sapiens, HEK-293T) is no more than 5 nM.

As to `COc1nc(NS(=O)(=O)c2ccccc2Cl)ccc1-c1cc2cnc(N[C@H]3CC[C@H](N(C)C)CC3)nc2cc1C` [Compound 108, 2-chloro-N-(5-(2-(((1r,4r)-4-(dimethylamino)cyclohexyl)amino)-7-methylquinazolin-6-yl)-6-methoxypyridin-2-yl)benzenesulfonamide], in experiment [1], the IC50 was no more than 5 nM. In addition, in experiment [2] (Homo sapiens, HEK-293T), the EC50 is no more than 5 nM.

As to `CCc1cc(-c2ccc(NS(=O)(=O)c3ccccc3Cl)nc2OC)cc2cnc(N[C@H]3CC[C@H](NC)CC3)nc12` [Compound 116, 2-chloro-N-(5-(8-ethyl-2-(((1r,4r)-4-(methylamino)cyclohexyl)amino)quinazolin-6-yl)-6-methoxypyridin-2-yl)benzenesulfonamide], in experiment [1], the half-inhibitory concentration (IC50) is no more than 5 nM. Also, the EC50 in experiment [2] (Homo sapiens, HEK-293T) is no more than 5 nM.

Regarding `CCc1nc(NS(=O)(=O)c2ccccc2Cl)ccc1-c1cc(CC)c2nc(N[C@H]3CC[C@H](N(C)C)CC3)ncc2c1` [Compound 117, 2-chloro-N-(5-(2-(((1r,4r)-4-(dimethylamino)cyclohexyl)amino)-8-ethylquinazolin-6-yl)-6-ethylpyridin-2-yl)benzenesulfonamide], the IC50 in experiment [1] is no more than 5 nM. Also, the EC50 in experiment [2] (Homo sapiens, HEK-293T) is no more than 5 nM.
